Experiments:
[1] = test system: bacteria in secretion from the wound of a dog with a wound infection; assay: Express determination of bacteria sensitivity, wound secretion of a dog; assay type: cell-based; conditions: ampicillin 1 μg/ml in enriched Columbia Agar, 37° C., lawn in control after 4-6 hours
Experimental: Express determination of bacteria sensitivity to ampicillin while inoculating material obtained from an animal (a dog) with a wound infection.
The method was carried out similarly to the way described in example 1.
Material to be investigated: secretion from the wound.
Nutrient medium: Columbia Agar medium enriched with horse serum and sheep red blood cells, vitamins and amino acids. Ampicillin was added to the medium in maximum concentration achievable at the location where the material was taken—1 μg/ml.
Material taken from the wound was plated using a swab on the medium in a Petri dish. Same medium and cultivation conditions (without ampicillin) were used for control purposes.
The culture was incubated at temperature of 37° C.

[2] = test system: bacteria in urine of a patient suffering from cystitis; assay type: cell-based
[3] = test system: aerobes in secretion of subgingival space of a patient with a disease of periodontium; assay: Sensitivity to antibiotics and their mixture, subgingival secretion, aerobic conditions; assay type: cell-based, aerobic bacteria; conditions: Columbia Agar, dishes 1-3, 37° C., whole observation period; lawn in control after 4 hours
Description: (§1) Express determination of sensitivity to a mixture of antibiotics, namely gentamicin (mainly affects aerobic bacteria) and metronidazole (active against anaerobic bacteria and microaerophils), while inoculating material obtained from a patient suffering from a disease of periodontium. Material to be investigated: freshly collected secretion of subgingival space. Nutrient medium: Columbia Agar medium enriched with sheep red blood cells and horse serum was used for cultivation in aerobic conditions. Anaerobic microorganisms were detected using Schaedler Agar containing sheep red blood cells and serum. […] were added to the medium: gentamicin (active against a wide range of aerobes) and metronidazole that selectively affects anaerobic bacteria. Medium in dishes 1 and 1a contains gentamicin; medium in dishes 2 and 2a contains metronidazole; medium in dishes 3 and 3a contains gentamicin and metronidazole; dishes 4 and 4a contain only the nutrient medium (control). The secretion of subgingival space was diluted fivefold using isotonic solution of sodium chloride and plated in the amount of 0.05 ml per dish using a spreader. […] The results were analyzed after 4, 8, 12, 20, 24 and 48 hours after the inoculation (anaerobic bacteria are characterized by lengthy growth).

[4] = test system: anaerobes in secretion of subgingival space of a patient with a disease of periodontium; assay: Sensitivity to antibiotics and their mixture, subgingival secretion, anaerobic conditions; assay type: cell-based, anaerobic bacteria; conditions: Schaedler Agar, dishes 1a-3a, 37° C., after 8 hours
Description: as §1

[5] = test system: fungi that cause diseases of plants (powdery mildew); assay: Express determination of sensitivity of plant-disease fungi to antifungal preparations; assay type: cell-based; conditions: 30° C., nystatin 0.4 mg/l; for growth in the well with the antifungal preparation: Sabouraud Agar with gentamicin 0.01 mg/l, after 8 hours, propiconazole 1%
Experimental: Express determination of the sensitivity of fungi that cause diseases of plants (powdery mildew) to antifungal preparations.
Material to be investigated: wipe sampling of isotonic solution of sodium chloride taken from affected areas of a leaf of a plant that has indications of fungi growth.
Nutrient medium: Sabouraud Agar medium enriched with mineral components, placed into a plate with six wells. in order to prevent the growth of bacteria, gentamicin was added to the agar in the amount of 0.01 mg/l. The antifungal preparations to be investigated were also added to the medium: 1st well—propiconazole, in final concentration of 1%; 2nd well—nystatin (0.4 mg/l); 3rd well—control without any antifungal preparations.
1.0 ml of isotonic solution a sodium chloride was washed from […] of the affected area. The material was plated using an inoculation loop.
The inoculations were cultivated at 30° C. The results were analyzed after 6, 8, 12, 20, 24 and 48 hours after the inoculation.

## CC1(C)S[C@@H]2[C@H](NC(=O)[C@H](N)c3ccccc3)C(=O)N2[C@H]1C(=O)O [ampicillin]
[1]
  bacterial growth in the dish with the antibiotic: No bacterial growth

## CC[C@H]1OC(=O)[C@H](C)[C@@H](O[C@H]2C[C@@](C)(OC)[C@@H](O)[C@H](C)O2)[C@H](C)[C@@H](O[C@@H]2O[C@H](C)C[C@H](N(C)C)[C@H]2O)[C@](C)(O)C[C@@H](C)CN(C)[C@H](C)[C@@H](O)[C@]1(C)O [azithromycin]
[2]
  growth of bacteria in the presence of the antibiotic: no growth

## Cc1ncc([N+](=O)[O-])n1CCO [metronidazole]
[3]
  microbial growth in aerobic conditions: Microbial growth
[4]
  microbial growth in anaerobic conditions: Microbial growth

## C[C@@H]1[C@H](O)[C@@H](C)/C=C/C=C/CC/C=C/C=C/C=C/C=C/C(O[C@H]2O[C@H](C)[C@@H](O)[C@H](N)[C@@H]2O)CC2O[C@](O)(CC(O)C(O)CCC(O)CC(O)CC(O)CC(=O)O[C@H]1C)CC(O)C2C(=O)O (stereo partly drawn) [nystatin]
[5]
  growth in the well with the antifungal preparation: growth was observed
  sensitivity of the mold to the preparation: resistant

## CCCC1COC(Cn2cncn2)(c2ccc(Cl)cc2Cl)O1 (stereo not drawn) [propiconazole]
[5]
  growth in the well with the antifungal preparation: No growth

## gentamicin
[3]
  microbial growth in aerobic conditions: Microbial growth
[4]
  microbial growth in anaerobic conditions: Microbial growth
